{"source": "patent US11807627B2", "about": "“Morphic forms of complement factor D inhibitors” (priority 2018, dated 2023)", "key": {"[1]": {"assay": "Milling of Form A", "assay_type": "physicochemical", "conditions": "2 min milling (5000 RPM); initial and repeat runs", "description": "Compound 3 Form A material was milled using a Precellys® Evolution SUPER Homogenizer. Approximately 50 mg of Compound 3 Form A was weighed into 2×plastic 2 mL bead mill vials and 5×2.4 […] metal beads were placed into each vial. Sample 1 was milled using the following: RPM=5000; Cycles=2×60 seconds; Pause=10 seconds (between cycles). Sample 2 was milled using the above method but 5×60 seconds cycles instead of2×60 seconds. After milling, a sub-sample was taken from each and analyzed by XRPD and PLM. The above procedure was repeated and the resulting samples were analyzed by XRPD and DSC analysis."}, "[2]": {"assay": "Solid state stress testing (temperature, humidity, storage, photostability)", "assay_type": "physicochemical"}, "[3]": {"assay": "Solvent experiments (solubility, Example 3)", "assay_type": "physicochemical"}, "[4]": {"system": "Caco2", "assay": "Caco2 permeability and efflux ratio", "assay_type": "in vitro ADME", "conditions": "A-B"}, "[5]": {"assay": "Caco2 permeability and efflux ratio", "assay_type": "in vitro ADME", "conditions": "human, Caco-2; Caco2; read-out: Efflux ratio (B-A/A-B)"}, "[6]": {"assay": "Enabling form study: solubility from RT slurry in solvents (Table 2)", "assay_type": "physicochemical", "conditions": "organic solvent or mixture, thermodynamic from solid", "description": "A solution of Compound 3 and solvent/solvent system of interest was prepared. Solids persisted in solution. The samples were placed onto a stir plate at ambient (RT) or elevated (ET) temperatures. The samples were monitored to ensure that solids persisted during the slurry process. The solids were collected via vacuum filtration and dried under ambient conditions.\nAn enabling form study was also carried out (Table 2)."}, "[7]": {"assay": "Dose number and BCS classification", "assay_type": "physicochemical"}, "[8]": {"assay": "Polymorph study: temperature cycling", "assay_type": "physicochemical", "description": "Approximately 960 mg of Compound 3 Form A was weighed into a 20 mL glass vial and dissolved using 12 mL 1,4-dioxane. 0.5 mL of the solution was then dispensed into twenty-four 1.5 mL HPLC glass vials (approx. 40 mg per vial). The Compound 3 Form A solutions were then frozen (at −50° C.) and dried by lyophilization using a Lablyo mini freeze drier. Post-lyophilization, a sub-sample was taken and analyzed by XRPD. Material was successfully rendered amorphous by lyophilization.\nAn appropriate volume of solvent (solvent systems are detailed in Table 17) was added to lyophilized solids. The samples were temperature cycled between ambient and 40° C. (4 hour cycles) for around 72 hours. Observations were made after 72 hours temperature cycling. Further solvent was added to the samples to produce a mobile slurry and slurries were agitated at 40° C. for approximately 18 additional hours. A sub-sample of solid (where applicable) was analyzed by XRPD. Samples were heated using a heat gun to aid dissolution to ensure saturated solutions were produced. Saturated solutions were syringe filtered to remove any potential seed material (as a precaution) and divided between three different crystallization conditions: cooling, evaporation, and anti-solvent addition (volumes of saturated solutions per condition can be found in Table 17)."}, "[9]": {"assay": "pH experiments and SIF/SGF/FaSSIF/FeSSIF solubility (Examples 3 and 4)", "assay_type": "physicochemical"}, "[10]": {"assay": "Solution stress testing (acid, base, oxidative degradation)", "assay_type": "physicochemical"}, "[11]": {"assay": "Interconversion experiments: competitive slurries (Example 2, Table 6)", "assay_type": "physicochemical", "conditions": "Forms A and G vs Form B, ethyl acetate, ambient and approximately 50° C.", "description": "A solution of Compound 3 and solvent/solvent system of interest was prepared. Solids persisted in solution. The samples were placed onto a stir plate at ambient (RT) or elevated (ET) temperatures. The samples were monitored to ensure that solids persisted during the slurry process. The solids were collected via vacuum filtration and dried under ambient conditions. […] At ambient temperature, Forms B and M are both present after almost a week of slurrying."}}}
{"compound": "CC(=O)c1nn(CC(=O)N2[C@H](C(=O)Nc3nc(Br)ccc3C)C[C@@]3(C)C[C@@H]23)c2ccc(-c3cnc(C)nc3)cc12", "note": "[Compound 3 Form A]", "values": [{"measurement": "Milling: XRPD", "setting": "[1]", "result": "Amorphous"}]}
{"compound": "CC(=O)c1nn(CC(=O)N2[C@H](C(=O)Nc3nc(Br)ccc3C)C[C@@]3(C)C[C@@H]23)c2ccc(-c3cnc(C)nc3)cc12", "note": "[Compound 3, (1R,3S,5R)-2-(2-(3-acetyl-5-(2-methylpyrimidin-5-yl)-1H-indazol-1-yl)acetyl)-N-(6-bromo-3-methylpyridin-2-yl)-5-methyl-2-azabicyclo[3.1.0]hexane-3-carboxamide]", "values": [{"measurement": "Solid State Stress Testing: Room Temperature storage", "setting": "[2]", "result": "No degradation"}, {"measurement": "Solid State Stress Testing: Humidity", "setting": "[2]; 40° C./75% RH", "result": "No degradation"}, {"measurement": "Solid State Stress Testing: Elevated temperature", "setting": "[2]; 105° C. - 24 hr", "result": "No degradation"}, {"measurement": "Solid State Stress Testing: Photostability", "setting": "[2]; exposure to UV visible", "result": "No light senstitivity"}, {"measurement": "solubility", "setting": "[3]; DMSO, organic solvent or mixture", "result": 104000, "unit": "µg/mL"}, {"measurement": "solubility", "setting": "[3]; UPLC Water", "result": 1040, "unit": "µg/mL"}, {"measurement": "solubility", "setting": "[3]; acetone, organic solvent or mixture", "result": 34300, "unit": "µg/mL"}, {"measurement": "solubility", "setting": "[3]; ethanol, organic solvent or mixture", "result": 8380, "unit": "µg/mL"}, {"measurement": "solubility", "setting": "[3]; heptane, organic solvent or mixture", "result": 865, "unit": "µg/mL"}, {"measurement": "Caco2: A-B", "setting": "[4]", "result": "Caco2: A-B ~17 × 10^−6 cm/s"}, {"measurement": "efflux ratio", "setting": "[5]", "result": 2.2}, {"measurement": "solubility", "setting": "[6]; ethyl acetate, EtOAc", "result": "~14500", "unit": "µg/mL"}, {"measurement": "solubility", "setting": "[6]; isopropanol, IPA", "result": "~5600", "unit": "µg/mL"}, {"measurement": "solubility", "setting": "[6]; MTBE", "result": "~1200", "unit": "µg/mL"}, {"measurement": "solubility", "setting": "[6]; Toluene", "result": "~13600", "unit": "µg/mL"}, {"measurement": "BCS class", "setting": "[7]", "result": "BCS II compound"}, {"measurement": "Dose Number", "setting": "[7]; for 100 mg dose", "result": "Dose Number for 100 mg dos 3-7"}, {"measurement": "Crystallization technique: Maturation", "setting": "[8]; 1,4-Dioxane", "result": "Clear solution"}, {"measurement": "Crystallization technique: Maturation", "setting": "[8]; 1-Butanol", "result": "Form A"}, {"measurement": "Crystallization technique: Maturation", "setting": "[8]; 2-Methyl Tetrahydrofuran", "result": "Form A"}, {"measurement": "Crystallization technique: Maturation", "setting": "[8]; 2-Propanol", "result": "Form A"}, {"measurement": "Crystallization technique: Maturation", "setting": "[8]; 40% Ethanol / 60% Water (% v/v) calc. aw = 0.7", "result": "Pattern N"}, {"measurement": "Crystallization technique: Maturation", "setting": "[8]; 50% 2-Propanol / 50% Heptane (% v/v), WC = weakly crystalline", "result": "Form A (WC)"}, {"measurement": "Crystallization technique: Maturation", "setting": "[8]; 50% Acetonitrile / 50% Water (% v/v) calc. aw = 0.9", "result": "Clear solution"}, {"measurement": "Crystallization technique: Maturation", "setting": "[8]; 50% Ethanol / 50% Heptane (% v/v)", "result": "Amorphous"}, {"measurement": "Crystallization technique: Maturation", "setting": "[8]; 70% 2-Propanol / 30% Heptane (% v/v), WC = weakly crystalline", "result": "Form B (WC)"}, {"measurement": "Crystallization technique: Maturation", "setting": "[8]; 70% 2-Propanol / 30% Water (% v/v) aw = 0.8", "result": "Form A"}, {"measurement": "Crystallization technique: Maturation", "setting": "[8]; 95% 2-Propanol / 5% Heptane (% v/v)", "result": "Form A"}, {"measurement": "Crystallization technique: Maturation", "setting": "[8]; 95% Heptane / 5% 2-Propanol (% v/v), WC = weakly crystalline", "result": "Form A (WC)"}, {"measurement": "Crystallization technique: Maturation", "setting": "[8]; 95% Methanol / 5% Water (% v/v) calc. aw = 0.2", "result": "Amorphous"}, {"measurement": "Crystallization technique: Maturation", "setting": "[8]; Acetone", "result": "Form B"}, {"measurement": "Crystallization technique: Maturation", "setting": "[8]; Acetonitrile", "result": "Form J"}, {"measurement": "Crystallization technique: Maturation", "setting": "[8]; Ethanol", "result": "Amorphous"}, {"measurement": "Crystallization technique: Maturation", "setting": "[8]; Ethyl Acetate (dry)", "result": "Amorphous"}, {"measurement": "Crystallization technique: Maturation", "setting": "[8]; Methanol", "result": "Pattern O"}, {"measurement": "Crystallization technique: Maturation", "setting": "[8]; Methylethyl Ketone", "result": "Form A"}, {"measurement": "Crystallization technique: Maturation", "setting": "[8]; Methylisobutyl Ketone, WC = weakly crystalline", "result": "Form A (WC)"}, {"measurement": "Crystallization technique: Maturation", "setting": "[8]; Tetrahydrofuran", "result": "Clear solution"}, {"measurement": "Crystallization technique: Maturation", "setting": "[8]; Toluene", "result": "Amorphous"}, {"measurement": "Crystallization technique: Maturation", "setting": "[8]; n-Heptane", "result": "Amorphous"}, {"measurement": "Crystallization technique: Maturation", "setting": "[8]; tert-Butylmethyl Ether", "result": "Amorphous"}, {"measurement": "pH Experiments (solubility)", "setting": "[9]; 1.2 pH", "result": 389.37, "unit": "μg/mL"}, {"measurement": "pH Experiments: stability in the medium", "setting": "[9]; 1.2 pH", "result": "degrades"}, {"measurement": "pH Experiments (solubility)", "setting": "[9]; 4.0 pH", "result": 56.68, "unit": "μg/mL"}, {"measurement": "pH Experiments (solubility)", "setting": "[9]; 6.0 pH", "result": 54.60, "unit": "μg/mL"}, {"measurement": "pH Experiments (solubility)", "setting": "[9]; 7.4 pH", "result": 53.41, "unit": "μg/mL"}, {"measurement": "solubility", "setting": "[9]; FaSSIF, read-out: FaSSIF solubility", "result": 75.4, "unit": "µg/mL"}, {"measurement": "solubility", "setting": "[9]; FeSSIF, read-out: FeSSIF solubility", "result": 153, "unit": "µg/mL"}, {"measurement": "pH Experiments (solubility)", "setting": "[9]; SGF pH = 1.6", "result": 96.35, "unit": "μg/mL"}, {"measurement": "pH Experiments (solubility)", "setting": "[9]; SIF pH = 6.5", "result": 80.77, "unit": "μg/mL"}, {"measurement": "Solution stress testing: Acid degradation", "setting": "[10]; 0.1N HCl", "result": "Degradation observed"}, {"measurement": "Solution stress testing: Base degradation", "setting": "[10]; 0.1N NaOH", "result": "Degradation observed"}, {"measurement": "Solution stress testing: Oxidative degradation", "setting": "[10]; H2O2", "result": "Not susceptible to oxidation"}]}
{"compound": "CC(=O)c1nn(CC(=O)N2[C@H](C(=O)Nc3nc(Br)ccc3C)C[C@@]3(C)C[C@@H]23)c2ccc(-c3cnc(C)nc3)cc12", "note": "[Form B]", "values": [{"measurement": "Relative stability in competitive slurry", "setting": "[11]", "result": "more stable form"}]}
